“And” between values parts separate entries of the source, which are not always exact repeats. Identical values can stand only once.
Columns and labels:
Test in all cases: EDTA salt dilution test, MIC/MBC
Type in all cases: cell-based
[1] = system: Coryneform strait/amy
[2] = system: Proteus vulgaris
[3] = system: Ent. faeculm
[4] = system: Ent. faecalis
Description: (§1) Protocol one: Broth dilutions:
(§2) Inoculate a 25 ml nutrient broth (Oxoid No2) in a sterile universal container with one of the following organisms; Pseudomonas aeruginosa, Proteus Mirabilis, E. coli, Klebsiella pneumoniae, Staph aureus, Coagulase negative staphylococci, Enterococcus faecalis or MRSA.
(§3) Incubate the broth at 37° C. overnight.
(§4) To make these concentrations put the EDTA needed for 10 mLs in only 9 mLs of broth in sterile universal containers, as this will be diluted further when the organisms are added.
(§5) Dilute the overnight broth cultures to 10^7 organisms/mL using more sterile nutrient broth.
(§6) Add 1 mL of this diluent to each of the EDTA series broths. This gives a final concentration of 10^6 organism/mL in the EDTA broths.
(§7) Incubate for 18 hours at 37° C.
(§8) Next day visually read the MIC's by observing the turbidity of the broths.
(§9) Plate out 1 uL of each dilution onto fresh blood agar plate and spread using a sterile plastic spreader.
(§10) Incubate overnight at 37° C.
(§11) Next day read the MBC's by performing colony counts.

[5] = system: S. lentus
Description: as §1, §2, §3, §4, §5, §6, §7, §8, §9, §10, §11

[6] = system: MRSA; conditions: five entries
Description: as §1, §2, §3, §4, §5, §6, §7, §8, §9, §10, §11

[7] = system: S. epidermidis; conditions: two entries
Description: as §1, §2, §3, §4, §5, §6, §7, §8, §9, §10, §11

[8] = system: VRE; conditions: two entries, Exhibit A1
Description: as §1, §2, §3, §4, §5, §6, §7, §8, §9, §10, §11

[9] = system: S. xylosus
Description: as §1, §2, §3, §4, §5, §6, §7, §8, §9, §10, §11

[10] = system: S. aureus; conditions: five entries
Description: as §1, §2, §3, §4, §5, §6, §7, §8, §9, §10, §11

[11] = system: Kleb. pnemoniae; conditions: two entries
Description: as §1, §2, §3, §4, §5, §6, §7, §8, §9, §10, §11

[12] = system: S. capitis; conditions: two entries
Description: as §1, §2, §3, §4, §5, §6, §7, §8, §9, §10, §11

[13] = system: E. coli; conditions: three entries
Description: as §1, §2, §3, §4, §5, §6, §7, §8, §9, §10, §11

[14] = system: S. simulans
Description: as §1, §2, §3, §4, §5, §6, §7, §8, §9, §10, §11

[15] = system: Pseudomonas aeruginosa; conditions: two entries
Description: as §1, §2, §3, §4, §5, §6, §7, §8, §9, §10, §11

[16] = system: Pseudomonas sp.
Description: as §1, §2, §3, §4, §5, §6, §7, §8, §9, §10, §11

[17] = system: Proteus mirabilis; conditions: two entries
Description: as §1, §2, §3, §4, §5, §6, §7, §8, §9, §10, §11

[18] = system: Kleb. oxytoca
[19] = system: Steno. maltophilia
[20] = system: Ent. cloacae; conditions: three entries
[21] = system: Acinetobacter baumanii; conditions: two entries, Exhibit A1
[22] = system: Kleb. ornitholytica
[23] = system: Cornyeform amycolatum

With `O=C([O-])CN(CCN(CC(=O)[O-])CC(=O)[O-])CC(=O)[O-].[Fe+3].[Na+]` [Ferric-sodium salt EDTA] the “MBC, minimum concentration required to kill an entire population” value (“MBC, minimum concentration required” for short) ([1]; Exhibit A1) was 10 mg/mL, the “MIC, minimum concentration required to inhibit growth” value (from here on “MIC … to inhibit growth”) ([1]; Exhibit A2) was 10 mg/mL and the “MBC, minimum concentration required” value ([2]; Exhibit A1) was >15 mg/mL. For the same molecule, the “MIC … to inhibit growth” value ([2]; Exhibit A2) was >15 mg/mL, the “MIC … to inhibit growth” value ([3]; Ent. faecuim, Exhibit A2) was 4 mg/mL and the “MBC, minimum concentration required” value ([3]; Ent. faeculm, Exhibit A1) was >30 mg/mL. For the same molecule, the “MBC, minimum concentration required” value ([4]; Exhibit A1) was >30 mg/mL, the “MIC … to inhibit growth” value ([4]; Exhibit A2) was 4 mg/mL and the “MBC, minimum concentration required” value ([5]; Exhibit A1) was >30 mg/mL. The “MIC … to inhibit growth” value ([5]; Exhibit A2) was >20 mg/mL, the “MBC, minimum concentration required” value ([6]; Exhibit A1) was >30 mg/mL and the “MIC … to inhibit growth” value ([6]; Exhibit A2) was >20 mg/mL. The “MBC, minimum concentration required” value ([7]; Exhibit A1) was >30 mg/mL, the “MIC … to inhibit growth” value ([7]; Exhibit A2) was >20 mg/mL and the “MBC, minimum concentration required” value [8] was >30 mg/mL. The “MBC, minimum concentration required” value ([9]; Exhibit A1) was >30 mg/mL, the “MIC … to inhibit growth” value ([9]; Exhibit A2) was >20 mg/mL and the “MBC, minimum concentration required” value ([10]; Exhibit A1) was >30 mg/mL. For the same molecule, the “MIC … to inhibit growth” value ([10]; Exhibit A2) was >20 mg/mL, the “MBC, minimum concentration required” value ([11]; Exhibit A1) was >15 mg/mL and the “MIC … to inhibit growth” value ([11]; Exhibit A2) was >15 mg/mL and 15 mg/mL. The “MBC, minimum concentration required” value ([12]; Exhibit A1) was >30 mg/mL, the “MIC … to inhibit growth” value ([12]; Exhibit A2) was >20 mg/mL and the “MBC, minimum concentration required” value ([13]; Exhibit A1) was >15 mg/mL. For the same molecule, the “MIC … to inhibit growth” value ([13]; Exhibit A2) was 15 mg/mL and >15 mg/mL, the “MBC, minimum concentration required” value ([14]; Exhibit A1) was >30 mg/mL and the “MIC … to inhibit growth” value ([14]; Exhibit A2) was >20 mg/mL. The “MBC, minimum concentration required” value ([15]; Exhibit A1) was >15 mg/mL, the “MIC … to inhibit growth” value ([15]; Exhibit A2) was 15 mg/mL and the “MBC, minimum concentration required” value ([16]; Exhibit A1) was >15 mg/mL. For the same molecule, the “MIC … to inhibit growth” value ([16]; Exhibit A2) was 15 mg/mL, the “MBC, minimum concentration required” value ([17]; Exhibit A1) was >15 mg/mL and the “MIC … to inhibit growth” value ([17]; Exhibit A2) was >15 mg/mL. The “MBC, minimum concentration required” value ([18]; Exhibit A1) was >15 mg/mL, the “MIC … to inhibit growth” value ([18]; Exhibit A2) was >15 mg/mL and the “MBC, minimum concentration required” value ([19]; Exhibit A1) was >15 mg/mL. The “MIC … to inhibit growth” value ([19]; Exhibit A2) was 10 mg/mL, the “MBC, minimum concentration required” value ([20]; Exhibit A1) was >15 mg/mL and the “MIC … to inhibit growth” value ([20]; Exhibit A2) was >15 mg/mL. The “MBC, minimum concentration required” value [21] was 10 mg/mL and >15 mg/mL, the “MBC, minimum concentration required” value ([22]; Exhibit A1) was >15 mg/mL and the “MIC … to inhibit growth” value ([22]; Exhibit A2) was 15 mg/mL. The “MBC, minimum concentration required” value ([23]; Exhibit A1) was 10 mg/mL and the “MIC … to inhibit growth” value ([23]; Exhibit A2) was 10 mg/mL.

From patent US20100316529A1, “Anti-Microbial Systems and Methods” (priority 2001, published 2010)
